Experiments:
HS746T cells [1] = assay: CyQUANT cell proliferation / viability assay, stem-like subtype cell line; format: cell-based; settings: for cell proliferation: HS746T, DON 1, 50, 150 μM, CB839 1, 5, 25 μM, BPTES 5, 10, 25 μM, FIGS. 5 to 7; for survival of HS746T, inhibitor with glutamine deficiency vs each alone: Gln(−), PHGDH inhibitor 25 μM, SHMT inhibitor 1 μM, MTHFD2 inhibitor 0.5 μM, FIGS. 9 to 11
Protocol: (§1) NCIN87, an intestinal subtype cell line, and HS746T, a stem-like subtype cell line, were dispensed in a 96-well plate (black) with 5000 cells each, and replaced with glutamine-deficient culture medium (Gibco) the next day. Then, the cell lines were treated with DON (1 μM, 50 μM, 150 μM; selleckchem, cat no. S8620), CB839 (1 μM, 5 μM, 25 μM; cayman, cat no. S7655) or BPTES (5 μM, 10 μM, 25 μM; MCE, cat no. HY-12683) and the treatment time was 0 hours, and the cell culture medium was discarded at 24, […] and 72 hours, and stored in an ultra-low temperature freezer at −80° C. After culturing the cells stored in this way at room temperature, 200 μl of cell lysate containing GR dye contained in the cell viability assay kit (CyQUANT cell proliferation assay, Invitrogen) was placed in each well of the cultured cells and incubated at room temperature for 5 min. Afterwards, The intensity of fluorescence was measured at a wavelength of 480 nm and 520 nm excitation using a fluorescence photometer (thermo, varioskan flash 3001), and the measured value was standardized to the number of cells at 0 hour, quantified in %, and the value was shown in FIGS. 4 to 7.
As described in Example 4, after dispensing and incubating the stem-like subtype cell line HS746T, replacing it with a glutamine-deficient culture medium, administering a PHGDH inhibitor (25 μM), SHMT inhibitor (1 μM) or MTHFD2 inhibitor (0.5 μM), and using a cell viability assay kit, the survival rate measured using the cell viability assay kit was shown in FIGS. 9 to 11.

NCIN87 cells = assay: CyQUANT cell proliferation assay, intestinal subtype cell line; format: cell-based; settings: DON 1, 50, 150 μM, CB839 1, 5, 25 μM, BPTES 5, 10, 25 μM, FIGS. 5 to 7
Protocol: as §1

[2] = test system: glutamine-dependent liver cancer cells; settings: cited from earlier work
[3] = test system: GA077 stem-like subtype organoid; assay: Organoid diameter by optical microscopy; format: cell-based; settings: CB839 5 μM alone, D1 to D4, FIG. 8
SEM-type GC cells [4] = assay: Cell death by GLS/PHGDH inhibitor cotreatment and antioxidant rescue; format: cell-based; settings: addition of antioxidant
HS746T cells [5] = assay: Ratio of reduced (GSH) to oxidized glutathione (GSSG); format: cell-based; settings: HS746T cultured without glutamine plus PHGDH inhibition
SEM-type GC cells [6] = assay: Mitochondrial ROS estimated by MitoSOX; format: cell-based; settings: NCT503 treatment and glutamine starvation
HS746T cells [7] = assay: Amount of NADP; format: cell-based; settings: PHGDH-inhibited cells with glutamine deficiency

Row | Compound | cell proliferation (HS746T cells [1]) | cell proliferation (NCIN87 cells) | survival of HS746T, inhibitor with glutamine deficiency vs each alone (HS746T cells [1]) | also measured
1 | O=C(Cc1ccccc1)Nc1nnc(CCSCCc2nnc(NC(=O)Cc3ccccc3)s2)s1 [BPTES] | not reduced | inhibited |  | 
2 | O=C(Cc1cccc(OC(F)(F)F)c1)Nc1ccc(CCCCc2nnc(NC(=O)Cc3ccccn3)s2)nn1 [CB839] | not reduced | inhibited |  | antitumor effect of single-drug treatment [2]: very limited antitumor effect; organoid size (diameter) [3]: not reduced in size
3 | [N-]=[N+]=CC(=O)CC[C@H](N)C(=O)O [DON] | not reduced | inhibited |  | 
4 | Cc1c(N2CCN(C)[C@@H](C)C2)ccc2c3c(c(=O)oc12)CN(C(=O)c1ccc(NS(C)(=O)=O)c(OC(F)(F)F)c1)CC3 [MTHFD2i] |  |  | significant synergistic effect | 
5 | CC(=O)N[C@@H](CS)C(=O)O [NAC, N-acetylcysteine] |  |  |  | rescue of cell death induced by cotreatment with CB839 and NCT503 (SEM-type GC cells [4]): partially rescued
6 | Cc1cc(C)nc(NC(=S)N2CCN(Cc3ccc(C(F)(F)F)cc3)CC2)c1 [NCT503] |  |  | significant synergistic effect | ratio of reduced glutathione (GSH) to oxidized glutathione (GSSG) (HS746T cells [5]): decreased; mitochondrial ROS estimated by MitoSOX (SEM-type GC cells [6]): highest; amount of NADP (HS746T cells [7]): lowest
7 | Cc1n[nH]c2c1C(c1cc(CO)cc(-c3ccccc3)c1)(C(C)C)C(C#N)=C(N)O2 (stereo not drawn) [SHMTi] |  |  | significant synergistic effect | 

Source: patent US20240238287A1, “PHARMACEUTICAL COMPOSITION FOR PREVENTING OR TREATING CANCER” (priority 2021, published 2024)
